The text below walks through data of patent publication US20210051949A1, “SOLID AGROCHEMICAL COMPOSITIONS” (UPL LTD, priority 2018, published 2021).

Data set [1] can be described thus: Comparative study of degradation of metsulfuron methyl in compositions with 2,4-D acid or 2,4-D sodium salt plus picloram (accelerated heat stability). The data set is classed as physicochemical. The following applies: for Active content: picloram, metsulfuron methyl. The method, then:
Degradation of Metsulfuron Methyl in Compositions with 2,4-D Acid and 2,4-D Sodium Salt: Comparative Study
A comparative study of degradation of metsulfuron methyl in composition of 2,4-D acid and 2,4-D sodium salt in combination with picloram was carried out. The results are summarized in the below table (Table 1):
The study was conducted at 0 days as well as after 14 days at 54° C. (accelerated heat stability conditions).

A short description of data set [2]: Physical parameters (active content, suspensibility, dispersibility, moisture, wet sieve) of a composition of 2,4-D acid, metsulfuron methyl and picloram acid. In kind it is physicochemical. Also on record: unit not given here. The text has this: Physical Parameters of a Composition Comprising 2, 4-D Acid, Metsulfuron Methyl and Picloram Acid:
Physical parameters such as suspensibility, dispersibility has been tested for a composition prepared according to the present invention are listed in the below table (Table 2).
As evident from the Table 2, the physical parameters such as suspensibility and dispersibility of the compositions prepared according to the present invention satisfies the requirement for a stable formulation.

[3] abbreviates: composition with 2,4-D acid, 0 days.
Where [4] appears, read: composition with 2,4-D acid, 14 days at 54° C.
Setting [5] is: composition with 2,4-sodium salt, 0 days.
The mark [6] stands for this setting: composition with 2,4-sodium salt, 14 days at 54° C.

SMILES strings stand for the structures.

As to `O=C(O)COc1ccc(Cl)cc1Cl` [2,4-D acid, 2,4-dichlorophenoxy acetic acid], the Active content is listed as 333.03 gm in data set [1] (setting [3]), 325.01 gm in data set [1] (setting [4]), 325.28 gm in data set [1] (setting [5]) and 328.01 gm in data set [1] (setting [6]). Also, the “% degradation after 14 days” value in data set [1] (setting [4]) is listed as 2.41%; in data set [1] (setting [6]) it was 0.84%. The “Active ingredient (content)” value in data set [2] (14 Day AHS) came out at 319.6; in data set [2] (Ambient) it was 320.5. Moreover, the Suspensibility in data set [2] (14 Day AHS) is listed as 99.10; in data set [2] (Ambient), 99.96.

Take `COC(=O)c1ccccc1S(=O)(=O)NC(=O)Nc1nc(C)nc(OC)n1` [Metsulfuron methyl]: the Active content was determined as 46.06 gm in data set [1] (setting [3]), 44.42 gm in data set [1] (setting [4]), 49.78 gm in data set [1] (setting [5]) and 43.88 gm in data set [1] (setting [6]). Moreover, the “Active ingredient (content)” value in data set [2] (14 Day AHS) came to 39.30; in data set [2] (Ambient), 42.3. In addition, the Suspensibility in data set [2] (14 Day AHS) is on record as 99.75; in data set [2] (Ambient), 100.90.

Turning to `Nc1c(Cl)c(Cl)nc(C(=O)O)c1Cl` [Picloram acid, Picloram], the Active content in data set [1] (setting [3]) is given as 98.96 gm; in data set [1] (setting [4]), 98.05 gm; in data set [1] (setting [5]) it was 95.65 gm; in data set [1] (setting [6]), 95.59 gm. In addition, the “% degradation after 14 days” value in data set [1] (setting [4]) was 0.92%; in data set [1] (setting [6]), 0.06%. The “Active ingredient (content)” value was determined as 105.5 in data set [2] (14 Day AHS) and 106.5 in data set [2] (Ambient). In addition, the Suspensibility in data set [2] (14 Day AHS) amounted to 99.61; in data set [2] (Ambient), 100.50.
